Experimental data as given in patent publication US8841341B2, “Pharmaceutical composition effective against biofilms” (Helmholtz-Zentrum fuer Infektionsforschung GmbH, priority 2007, dated 2014).
Entries after “also recorded” stand apart in the source; their conditions may differ. Like-named read-outs stand apart in the source and are kept apart here.

Columns and labels:
Type in all cases: cell-based
[1] = test system: Streptococcus mutans wild-type strain; test: Inhibition of biofilm formation in in vitro culture (live/dead BacLight staining, microtiter plate); details: for inhibition at 0.025 µg/mL: Carolacton 0.025 μg/mL; for inhibition at 0.25 µg/mL: Carolacton 0.25 μg/mL; for inhibition at 2.5 µg/mL: Carolacton 2.5 μg/mL; for inhibition at 50 µg/mL: Carolacton 50 μg/mL
Protocol: (§1) Using Streptococcus mutans as a model organism that generates biofilms, overnight cultures of Streptococcus mutans in THB medium (Todd Hewitt Broth, available from Bacto) were diluted 1:100 into fresh THB medium containing 0.5% wt/vol sucrose. For anaerobic growth, medium was flushed with nitrogen before use. Aliquots of the diluted culture (95 μL) of Example 1 were distributed into the wells of a 96-well polystyrene flat bottom microtiter plate, containing 5 μL of different concentrations of test compound or alternatively, 5 μL methanol as a control. Microtiter plates were incubated under aerobic and an anaerobic conditions, respectively, at 37° C. for approximately 24 hours. For non-biofilm forming growth, e.g. planctonic growth, cells were grown in THB without the additional sucrose under otherwise identical conditions.
Bacterial growth was monitored in the microtiter plate by optical density readings at 620 nm. Quantitative bio film formation was determined using the live/dead bacLight bacterial viability staining kit (available under catalogue number L13152 from Molecular Probes, Eugene, Oreg., USA). The kit incorporates two nucleic acid stains that differ in spectral characteristics and their ability to penetrate bacterial cell membranes. When used alone, the green fluorescing stain Cyto9 generally labels all bacteria in the population, whereas the red fluorescing stain propidium-iodide only penetrates bacteria having damaged membranes, causing a reduction in the Cyto9 stain fluorescence when both dyes are present.
For staining, the culture medium was removed from the microtiter plate wells and cells were washed once with 100 μL fresh THB medium to remove planctonic growing and loosely bound cells. According to all the manufacturer's instructions, the adherent bacteria, regarded as the bio film, were then stained for 15 min in the dark at room temperature, using 100 μL of a 1:1 mixture of the two dye components. Fluorescence was measured in a microtiter plate reader (Wallac Victor 1420 multilabel counter, PerkinElmer Life Sciences), equipped with detectors and filter sets for monitoring red and green fluorescence.
Quantitative bio film formation was calculated by dividing the fluorescence intensities of the stained biofilms for each well of the microtiter plate at an emission of 530 nm (green) by the fluorescence intensity at the emission of 630 nm (red). As 100% activity, the results obtained from wells only containing methanol as the control, instead of a test compound, was used. Under anaerobic conditions, Carolacton inhibited formation of biofilm from Streptococcus mutans at very low concentrations.
For a determination of bio film inhibition in relation to the control, the activity value for the Carolacton comprising test well was subtracted from the value obtained for the control. At concentrations of 2.5 and 0.25 μg/mL Carolacton, respectively, bio film formation by Streptococcus mutans wild-type strain was inhibited by about 60% under anaerobic conditions.

[2] = test system: Streptococcus mutans com E (−) mutant; test: Inhibition of biofilm formation, quorum sensing negative mutant com E (-)
E. coli tolC = test: Antibiotic activity against E. coli tolC in vitro; details: E. coli tolC has an impaired cell wall
[3] = test system: Streptococcus mutans planctonic cultures; test: Planctonic growth (optical density readings at 620 nm); details: THB without additional sucrose
Protocol: as §1
Bacterial growth was monitored in the microtiter plate by optical density readings at 620 nm. Quantitative bio film formation was determined using the live/dead bacLight bacterial viability staining kit (available under catalogue number L13152 from Molecular Probes, Eugene, Oreg., USA). […] When used alone, the green fluorescing stain Cyto9 generally labels all bacteria in the population, whereas the red fluorescing stain propidium-iodide only penetrates bacteria having damaged membranes, causing a reduction in the Cyto9 stain fluorescence when both dyes are present.

E. coli = test: Antibiotic activity against E. coli
[4] = test system: Streptococcus mutans com C (−) mutant; test: Biofilm formation, quorum sensing negative mutant com C (-); details: same testing conditions
Protocol: as §1
(§2) Bacterial growth was monitored in the microtiter plate by optical density readings at 620 nm. Quantitative bio film formation was determined using the live/dead bacLight bacterial viability staining kit (available under catalogue number L13152 from Molecular Probes, Eugene, Oreg., USA). […] When used alone, the green fluorescing stain Cyto9 generally labels all bacteria in the population, whereas the red fluorescing stain propidium-iodide only penetrates bacteria having damaged membranes, causing a reduction in the Cyto9 stain fluorescence when both dyes are present. […]

[5] = test system: Streptococcus mutans com D (−) mutant; test: Inhibition of biofilm formation, quorum sensing negative mutant com D (-); details: read-out: Biofilm inhibition, com D (−) mutant
Protocol: as §1, §2

[6] = test system: Streptococcus mutans luxS mutant; test: Inhibition of biofilm formation, luxS mutant; details: read-out: Biofilm inhibition, luxS mutant
Protocol: as §1, §2

[7] = Streptococcus mutans, aerobic, read-out: Biofilm inhibition (%) under aerobic conditions
[8] = Streptococcus mutans, anaerobic, read-out: Biofilm inhibition (%) under anaerobic conditions

For COC(CC(=O)O)C(C)C(=O)C(C)/C=C(\C)C1OC(=O)C(O)C(O)/C=C/C(C)CCCC1C (stereo not shown) [Carolacton], the inhibition at 0.025 µg/mL [1, 7] was 21%, the inhibition at 0.25 µg/mL [1, 7] was 21% and the inhibition at 2.5 µg/mL [1, 7] was 19%. The inhibition at 50 µg/mL [1, 7] was 1%, the inhibition at 0.0025 µg/mL ([1]; Streptococcus mutans, anaerobic, Carolacton 0.0025 μg/mL, read-out: Biofilm inhibition (%) under anaerobic conditions) was -7% and the inhibition at 0.005 µg/mL ([1]; Streptococcus mutans, anaerobic, Carolacton 0.005 μg/mL, read-out: Biofilm inhibition (%) under anaerobic conditions) was 35%. It also gave an inhibition at 0.025 µg/mL [1, 8] of ~65%, an inhibition at 0.05 µg/mL ([1]; Streptococcus mutans, anaerobic, Carolacton 0.05 μg/mL, read-out: Biofilm inhibition (%) under anaerobic conditions) of 60% and an inhibition at 0.25 µg/mL [1, 8] of ~60%. For the same molecule, the inhibition at 0.25 µg/mL ([1]; Streptococcus mutans, anaerobic, second experiment, read-out: Biofilm inhibition (%) under anaerobic conditions) was 77%, the inhibition at 2.5 µg/mL [1, 8] was ~60% and the inhibition at 25 µg/mL ([1]; Streptococcus mutans, anaerobic, Carolacton 25 μg/mL, read-out: Biofilm inhibition (%) under anaerobic conditions) was 66%. For the same molecule, the inhibition at 50 µg/mL [1, 8] was 82%, the “Lowest concentration achieving inhibition of biofilm generation” value ([1]; in vitro cultures) was 0.005 µg/mL and the “Biofilm inhibition, com E (−) mutant” value ([2]; Carolacton 2.5 μg/mL, same testing conditions) was 5%. For the same molecule, the inhibition at 0.25 µg/mL ([2]; Streptococcus mutans, read-out: Biofilm inhibition, com E (−) mutant) was 12%, the “Concentration with antibiotic activity against E. coli tolC” value (E. coli tolC) was 60 ng/mL and the “Influence on planctonic growth” value [3] was “only slightly influenced; also recorded: not influenced by Carolacton, or only marginally reduced”. For the same molecule, the “Concentration needed to inhibit E. coli” value (E. coli) was “above 40 μg/mL”, the “Induction of biofilm formation, com C (−) mutant” value ([4]; Carolacton 0.25 μg/mL) was 150% and the “Induction of biofilm formation, com C (−) mutant” value ([4]; Carolacton 2.5 μg/mL) was 200%. The inhibition at 0.25 µg/mL [5] was ~10%, the inhibition at 2.5 µg/mL [5] was ~10% and the inhibition at 2.5 µg/mL [6] was 59%. The inhibition at 40.25 µg/mL [6] was 46%.
